Assay [1] has as its system Dectin-1/Galectin-9 interaction. The experiment in a line: Galectin-9 immunoprecipitation with PNGase F or lactose treatment. It is filed as binding. The following applies: PNGase F pretreatment of Dectin-1 or 100 mM lactose pre-incubation of Galectin-9; SDS-PAGE. The procedure: Dectin-1 IgG Fc (8 μg; InvivoGen) was treated with PNGase F (20 μl, ˜10,000 units; New England Biolabs) following the company's non-denaturing protocol (37° C., 24 hr). PNGase F treated and untreated Dectin-1 IgG Fc samples (4 μg; InvivoGen) were added to protein G beads (25 μl, Dynabeads Protein G; novex) and the mixtures were incubated at room temperature for 10 min. The beads were washed 2× with PBS-T (pH 7.4 with 0.02% tween). Recombinant mouse Galectin-9 (4 μg; R&D Systems) was resuspended in PBS-T or a solution of 100 mM lactose in PBS-T. Galectin-9 samples were then incubated with the Dynabead/Dectin-1 IgG Fc complex for 20 min at room temperature. The Dynabeads were then washed 3× with PBS-T and transferred to a clean tube. Galectin-9 and Dectin-1 IgG Fc were eluted in SDS-PAGE buffer (PBS with 10% BME) by heating at 98° C. for 10 min. The samples were then analyzed by SDS-PAGE and stained with Coomassie Blue.

Assay [2] has as its system bone-marrow derived macrophages (BMDM). The experiment in a line: Dectin-1 expression in bone-marrow derived macrophages. The following applies: cytokine added to day 8 BMDM cultures for 24h. It counts as cell-based, mouse.
For assay [3], the system named is pancreatic oncogenesis in KC mice. The experiment in a line: KC mice endogenous pancreatic tumor model. It is filed as in vivo, mouse. The following applies: Dectin-1-/- mice, 20 mg/kg i.p. five times weekly, 8 weeks, vs vehicle. The text has this: C57BL/6 (H-2Kb) mice were purchased from Jackson Labs (Bar Harbor, Me.) and bred in-house. KC and KPC mice develop pancreatic neoplasia endogenously by expressing mutant Kras alone or mutant Kras and p53, respectively, in the progenitor cells of the pancreas (Hingorani et al., Cancer Cell, 2003, 4, 437-450; Hingorani et al., Cancer Cell, 2005, 7, 469-483). Tumor progression and survival in control KC mice has been previously detailed (Daley et al., Cell, 2016, 166, 1485-1499). Dectin-1^−/− mice were crossed with KC mice to generate KC; Dectin-1^−/− animals. For orthotopic pancreatic tumor challenge, mice were administered intra-pancreatic injections of either Kras^G12D PDEC or FC1242 tumor cells derived from KPC mice. Kras^G12D PDEC and FC1242 cells were generated as previously described (Pylayeva-Gupta et al., Cancer Cell, 2012, 21, 836-847; Zambirinis et al., J Exp Med., 2015, 212, 2077-2094). […] Mice were sacrificed 3 weeks later and tumor weight recorded. […] PDEC proliferation was measured using the XTT assay according to the manufacturer's protocol (Roche, Nutley, N.J.). […]
For histological analysis, pancreatic specimens were fixed with 10% buffered formalin, dehydrated in ethanol, embedded with paraffin, and stained with H&E or Gomori's Trichrome. The fraction of preserved acinar area was calculated as previously described (Seifert et al., Nature, 2016, 532, 245-249). […]

As to `OC[C@H]1O[C@@H](O[C@H]2[C@H](O)[C@@H](O)C(O)O[C@@H]2CO)[C@H](O)[C@@H](O)[C@H]1O` (stereo partly shown) [lactose], the “effect on Dectin-1/Galectin-9 binding” value in assay [1] is recorded as “no alteration of the Dectin-1/Galectin-9 interaction”.

With “TGF-3: cytokine added to BMDM cultures; printed TGF-β in methods”, the “Dectin-1 expression in BMDM” value in assay [2] is listed as “did not influence Dectin-1 expression”.

With TNF-α, the “Dectin-1 expression in BMDM” value in assay [2] was “did not influence Dectin-1 expression”.

In the case of `Oc1cc(O)cc(/C=C/c2ccc(O)c(O)c2)c1` [Piceatannol], the pancreatic tumor weight entry in assay [3] is listed as “no effect”.

For the origin of these results see patent US20180044422A1, “TREATING SOLID TUMOR BY TARGETING DECTIN-1 SIGNALING” (New York University, priority 2016, published 2018).
